According to publication PMC10682951, “Structure-function and rational design of a spider toxin Ssp1a at human voltage-gated sodium channel subtypes” (Frontiers in Pharmacology, 2023):
Bridge positions count the residues as written; N and C are the ends. Peptide text beside a SMILES is read from it.

How the values were obtained:
Assay type in all cases: cell-based
hNaV1.3 = target: T1, hNaV1.3 (Homo sapiens, UniProt Q9NY46); assay: Automated whole-cell patch-clamp (QPatch 16X), hNaV1.3; conditions: HEK293 cells expressing hNaV1.3 + β1 subunit; QPatch 16X; holding −80 mV, step to 0 mV; peptide incubated 2 min; 0.1% BSA; mean, SEM and n (3-12)
T1 construct: host or cells: HEK293
In short: (§1)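 HEK293 cells stably expressing the channel (human subtypes with β1 subunit), held at −80 mV; 2 min peptide pre-incubation, then 20 ms steps to 0 mV after a 200 ms −120 mV conditioning pulse. Extracellular pH 7.3 with 20 mM TEA-Cl, CsF-based pipette solution, 0.1% BSA; IC50 from four-parameter Hill fit.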

hNaV1.7 = target: T2, hNaV1.7 (Homo sapiens, UniProt Q15858); assay: Automated whole-cell patch-clamp (QPatch 16X), hNaV1.7; conditions: HEK293 cells expressing hNaV1.7 + β1 subunit; QPatch 16X; holding −80 mV, step to 0 mV; peptide incubated 2 min; 0.1% BSA; mean, SEM and n (3-9)
T2 construct: host or cells: HEK293
In short: as §1

hNaV1.2 = target: T3, hNaV1.2 (Homo sapiens, UniProt Q99250); assay: Automated whole-cell patch-clamp (QPatch 16X), hNaV1.2; conditions: for IC50: HEK293 cells expressing hNaV1.2 + β1 subunit, QPatch 16X, holding −80 mV, step to 0 mV, peptide incubated 2 min, 0.1% BSA, mean, SEM and n (2-7)
T3 construct: host or cells: HEK293
In short: as §1

T3 sequence (Q07699 19-218): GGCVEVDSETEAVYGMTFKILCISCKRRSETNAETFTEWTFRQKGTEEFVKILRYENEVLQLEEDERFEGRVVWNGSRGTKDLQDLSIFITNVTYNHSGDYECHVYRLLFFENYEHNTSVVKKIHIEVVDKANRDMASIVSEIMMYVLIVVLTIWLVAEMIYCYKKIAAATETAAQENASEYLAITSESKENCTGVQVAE
T3 sequence (Q99250 whole entry): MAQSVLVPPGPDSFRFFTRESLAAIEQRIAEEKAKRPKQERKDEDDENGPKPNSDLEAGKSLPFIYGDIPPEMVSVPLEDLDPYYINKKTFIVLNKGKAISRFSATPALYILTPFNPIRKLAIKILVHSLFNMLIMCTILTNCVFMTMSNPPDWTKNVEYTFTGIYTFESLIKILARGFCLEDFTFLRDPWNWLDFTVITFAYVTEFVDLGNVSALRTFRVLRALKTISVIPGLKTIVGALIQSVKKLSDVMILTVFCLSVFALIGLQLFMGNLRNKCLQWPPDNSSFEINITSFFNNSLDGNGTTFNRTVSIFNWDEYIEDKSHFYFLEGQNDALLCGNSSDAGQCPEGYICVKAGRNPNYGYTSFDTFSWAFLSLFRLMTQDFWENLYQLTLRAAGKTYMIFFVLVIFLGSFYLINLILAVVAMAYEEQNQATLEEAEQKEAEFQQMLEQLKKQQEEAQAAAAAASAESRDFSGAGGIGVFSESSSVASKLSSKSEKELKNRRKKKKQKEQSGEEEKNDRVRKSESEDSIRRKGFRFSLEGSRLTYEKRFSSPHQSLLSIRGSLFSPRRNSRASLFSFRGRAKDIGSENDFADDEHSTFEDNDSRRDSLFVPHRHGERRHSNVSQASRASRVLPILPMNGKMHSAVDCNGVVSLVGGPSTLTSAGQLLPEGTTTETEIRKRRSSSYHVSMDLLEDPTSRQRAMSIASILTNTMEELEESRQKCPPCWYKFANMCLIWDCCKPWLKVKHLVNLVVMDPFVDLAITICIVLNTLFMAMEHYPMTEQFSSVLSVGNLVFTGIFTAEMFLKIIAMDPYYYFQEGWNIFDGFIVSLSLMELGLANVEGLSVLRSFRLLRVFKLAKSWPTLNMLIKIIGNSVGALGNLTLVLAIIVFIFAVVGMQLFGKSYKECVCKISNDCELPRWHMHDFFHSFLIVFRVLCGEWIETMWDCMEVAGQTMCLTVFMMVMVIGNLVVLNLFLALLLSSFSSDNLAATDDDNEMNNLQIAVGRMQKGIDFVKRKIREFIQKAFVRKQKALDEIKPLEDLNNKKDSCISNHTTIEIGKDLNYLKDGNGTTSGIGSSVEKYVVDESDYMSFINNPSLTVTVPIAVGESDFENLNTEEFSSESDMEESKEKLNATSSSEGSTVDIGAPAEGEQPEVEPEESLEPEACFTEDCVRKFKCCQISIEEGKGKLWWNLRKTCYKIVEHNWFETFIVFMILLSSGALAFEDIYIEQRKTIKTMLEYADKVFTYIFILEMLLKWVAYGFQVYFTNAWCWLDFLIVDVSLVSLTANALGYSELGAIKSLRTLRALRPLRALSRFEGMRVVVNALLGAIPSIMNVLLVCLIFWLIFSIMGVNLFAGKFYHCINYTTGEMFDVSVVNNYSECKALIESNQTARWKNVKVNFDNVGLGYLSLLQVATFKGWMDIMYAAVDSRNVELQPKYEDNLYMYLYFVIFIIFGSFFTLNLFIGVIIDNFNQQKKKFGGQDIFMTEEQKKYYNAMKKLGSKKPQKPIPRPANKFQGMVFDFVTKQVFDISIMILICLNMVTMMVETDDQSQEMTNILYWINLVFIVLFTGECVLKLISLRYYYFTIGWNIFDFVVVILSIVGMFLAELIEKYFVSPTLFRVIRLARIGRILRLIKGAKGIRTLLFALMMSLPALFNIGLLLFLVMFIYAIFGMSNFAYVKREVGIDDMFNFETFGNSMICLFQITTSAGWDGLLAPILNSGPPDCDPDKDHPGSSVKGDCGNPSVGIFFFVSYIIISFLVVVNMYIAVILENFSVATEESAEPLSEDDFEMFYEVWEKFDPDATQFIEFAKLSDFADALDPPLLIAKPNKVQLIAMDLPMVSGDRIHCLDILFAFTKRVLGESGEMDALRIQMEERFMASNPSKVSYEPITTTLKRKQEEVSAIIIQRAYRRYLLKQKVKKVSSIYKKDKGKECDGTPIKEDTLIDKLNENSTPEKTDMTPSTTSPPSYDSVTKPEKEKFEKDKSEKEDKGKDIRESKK
T1 sequence (Q9NY46 whole entry): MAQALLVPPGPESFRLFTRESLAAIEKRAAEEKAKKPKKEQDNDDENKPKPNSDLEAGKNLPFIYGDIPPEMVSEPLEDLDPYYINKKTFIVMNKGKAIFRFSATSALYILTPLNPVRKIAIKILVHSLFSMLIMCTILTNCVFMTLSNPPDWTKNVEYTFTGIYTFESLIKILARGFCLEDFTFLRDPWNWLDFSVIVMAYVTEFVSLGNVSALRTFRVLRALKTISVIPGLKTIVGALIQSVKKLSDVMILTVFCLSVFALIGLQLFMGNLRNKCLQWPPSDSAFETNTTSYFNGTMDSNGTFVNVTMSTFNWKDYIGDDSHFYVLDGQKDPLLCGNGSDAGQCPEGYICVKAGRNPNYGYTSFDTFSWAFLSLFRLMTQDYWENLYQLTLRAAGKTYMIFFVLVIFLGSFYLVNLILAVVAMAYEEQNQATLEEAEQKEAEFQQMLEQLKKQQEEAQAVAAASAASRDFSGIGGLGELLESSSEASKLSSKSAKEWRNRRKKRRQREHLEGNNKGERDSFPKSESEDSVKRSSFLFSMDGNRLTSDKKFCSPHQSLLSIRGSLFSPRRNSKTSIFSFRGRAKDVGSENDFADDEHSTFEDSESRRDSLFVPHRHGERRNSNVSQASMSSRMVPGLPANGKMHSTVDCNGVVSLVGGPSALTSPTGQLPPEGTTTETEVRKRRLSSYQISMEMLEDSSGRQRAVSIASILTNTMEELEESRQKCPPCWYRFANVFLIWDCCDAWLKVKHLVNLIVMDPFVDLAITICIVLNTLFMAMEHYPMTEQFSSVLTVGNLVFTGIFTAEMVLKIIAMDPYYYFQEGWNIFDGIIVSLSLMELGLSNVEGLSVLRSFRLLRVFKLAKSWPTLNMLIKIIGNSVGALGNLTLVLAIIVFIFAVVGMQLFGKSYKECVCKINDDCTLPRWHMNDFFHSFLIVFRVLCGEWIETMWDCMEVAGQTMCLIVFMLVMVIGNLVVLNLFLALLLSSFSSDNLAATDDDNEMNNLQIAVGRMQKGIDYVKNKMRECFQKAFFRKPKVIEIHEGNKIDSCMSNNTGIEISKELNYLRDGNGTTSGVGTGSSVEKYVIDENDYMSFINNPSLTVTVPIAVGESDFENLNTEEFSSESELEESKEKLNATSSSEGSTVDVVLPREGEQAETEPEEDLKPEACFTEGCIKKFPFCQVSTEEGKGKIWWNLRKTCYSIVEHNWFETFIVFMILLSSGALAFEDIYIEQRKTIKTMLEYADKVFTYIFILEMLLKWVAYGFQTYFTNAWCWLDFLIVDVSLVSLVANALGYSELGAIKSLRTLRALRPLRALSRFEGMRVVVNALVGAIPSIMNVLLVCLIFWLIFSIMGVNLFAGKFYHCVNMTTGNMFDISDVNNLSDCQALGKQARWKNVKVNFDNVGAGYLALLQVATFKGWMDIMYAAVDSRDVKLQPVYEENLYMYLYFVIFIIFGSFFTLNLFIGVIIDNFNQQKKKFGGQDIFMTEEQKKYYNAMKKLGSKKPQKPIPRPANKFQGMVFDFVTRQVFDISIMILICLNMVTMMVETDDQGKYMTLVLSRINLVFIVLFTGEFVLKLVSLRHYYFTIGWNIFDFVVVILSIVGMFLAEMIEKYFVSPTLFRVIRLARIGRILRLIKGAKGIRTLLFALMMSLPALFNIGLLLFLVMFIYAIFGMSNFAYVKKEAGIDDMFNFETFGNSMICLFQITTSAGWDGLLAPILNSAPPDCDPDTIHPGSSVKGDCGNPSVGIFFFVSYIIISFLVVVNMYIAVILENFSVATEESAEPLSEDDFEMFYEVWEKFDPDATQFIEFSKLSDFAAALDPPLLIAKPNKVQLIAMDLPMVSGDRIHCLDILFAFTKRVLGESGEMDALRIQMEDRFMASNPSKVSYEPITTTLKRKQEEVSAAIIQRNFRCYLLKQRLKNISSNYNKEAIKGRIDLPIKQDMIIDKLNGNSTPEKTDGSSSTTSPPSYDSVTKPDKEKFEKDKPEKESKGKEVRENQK
T1 sequence (Q07699 19-218, further chain): as the sequence (Q07699 19-218) above

SMILES	IC50 (hNaV1.3) [µM]	IC50 (hNaV1.7) [µM]	IC50 (hNaV1.2) [µM]	hNaV1.2-selectivity against hNaV1.3 (hNaV1.2; ratio of potencies hNaV1.3 / hNaV1.2) [fold]
CC(C)C[C@H](NC(=O)[C@H](CC(=O)O)NC(=O)[C@H](Cc1ccc(O)cc1)NC(=O)[C@H](CCCNC(=N)N)NC(=O)[C@@H]1CSSC[C@@H]2NC(=O)[C@H](CCCCN)NC(=O)[C@H](CC(N)=O)NC(=O)[C@H](CC(N)=O)NC(=O)[C@H](CC(N)=O)NC(=O)[C@@H]3CCCN3C(=O)[C@H](CC(=O)O)NC(=O)[C@@H]3CSSC[C@H](NC(=O)[C@H](C(C)C)NC(=O)[C@H](Cc4ccc(O)cc4)NC(=O)CNC(=O)[C@H](CCC(=O)O)NC(=O)[C@H](CSSC[C@H](NC(=O)[C@H](CC(=O)O)NC(=O)CN)C(=O)N[C@@H](CC(C)C)C(=O)NCC(=O)N[C@@H](Cc4c[nH]c5ccccc45)C(=O)N[C@@H](Cc4ccccc4)C(=O)N[C@@H](CO)C(=O)NCC(=O)N3)NC2=O)C(=O)N[C@@H](Cc2c[nH]cn2)C(=O)N[C@@H](Cc2c[nH]c3ccccc23)C(=O)N[C@@H](CCCCN)C(=O)N[C@@H](Cc2ccc(O)cc2)C(=O)N2CCC[C@H]2C(=O)N[C@@H](CCCCN)C(=O)N1)C(=O)O [W28K] (H-GDCLGWFSGCDPNNNKCCEGYVCHWKYPKCRYDL-OH; disulfide 3-18, 10-23, 17-30 (inferred); N-terminus and C-terminus assumed)	> 3	> 3	> 3	
CC(C)C[C@H](NC(=O)[C@H](CC(=O)O)NC(=O)[C@H](Cc1ccc(O)cc1)NC(=O)[C@H](CCCNC(=N)N)NC(=O)[C@@H]1CSSC[C@@H]2NC(=O)[C@H](CCCCN)NC(=O)[C@H](CC(N)=O)NC(=O)[C@H](CC(N)=O)NC(=O)[C@H](CC(N)=O)NC(=O)[C@@H]3CCCN3C(=O)[C@H](CC(=O)O)NC(=O)[C@@H]3CSSC[C@H](NC(=O)[C@H](C(C)C)NC(=O)[C@H](Cc4ccc(O)cc4)NC(=O)CNC(=O)[C@H](CCC(=O)O)NC(=O)[C@H](CSSC[C@H](NC(=O)[C@H](CC(=O)O)NC(=O)CN)C(=O)N[C@@H](CC(C)C)C(=O)NCC(=O)N[C@@H](Cc4c[nH]c5ccccc45)C(=O)N[C@@H](Cc4ccccc4)C(=O)N[C@@H](CO)C(=O)NCC(=O)N3)NC2=O)C(=O)N[C@@H](Cc2c[nH]cn2)C(=O)N[C@@H](Cc2c[nH]c3ccccc23)C(=O)N[C@@H](CCCCN)C(=O)N[C@@H](Cc2ccc(O)cc2)C(=O)N[C@@H](CCCCN)C(=O)N[C@@H](Cc2c[nH]c3ccccc23)C(=O)N1)C(=O)O [P27K]	1.53	0.108	0.124	> 10
